The values that follow come from US4055640A, “Compositions and methods for controlling the growth of bacteria, fungi and algae using certain derivatives of N-(2,2-dichlorovinyl)salicylamides” (Nippon Kayaku Co., Ltd., priority 1975, dated 1977).

Data set [1] relates to seedling blight of rice plant (pathogen Fusarium sp. and Rhizoctonia sp.). In words: Exterminating test on seedling blight of rice plant (Experimental Example 1). In kind it is in vivo. The note with it: soil, 408 h, 0.25g/box a.i., 5% dust mixed with soil; read-out: Percentage of healthy seedlings. The protocol: Exterminating test on seedling blight of rice plant Nursery boxes (60 × 30 × 3 cm) were filled with soil which were contaminated with pathogen (Fusarium sp. and Rhizoctonia sp.) The dust in which the present compound was contained in a ratio of 5% by weight was added in the box in a ratio of 5 grams per box and mixed well with soil. Thereafter, seeds of rice plant (variety: Nihonbare) were sowed in drills at a rate of 0.3 liter per box and grown up in a lighting chamber at 17° C. After 7 days from the sowing, the boxes were carried out in the field. Furthermore, 10 days thereafter the observations were made. Four percent (4%) dust of 3-hydroxy-5-methyl isoxazol (hereinafter referred to as hydroxyisoxazol) on the market was used as a control and tested by the same method. The test results are shown in Table 2 with a "percentage of healthy seedlings". The percentage of healthy seedlings was calculated as follows: […]

Data set [2] deals with Fusarium wilt of cucumber. Nature of the data set: Exterminating test on Fusarium wilt of cucumber (Experimental Example 4). The class given is in vivo, Fusarium oxysporum f, cucumerinum. As to conditions: Fusarium, soil, 336 h, 500 ppm, soil drench 100 ml per pot, two weeks; read-out: Percentage of healthy seedlings. The protocol:
Exterminating test on Fusarium wilt of cucumber Twenty (20) grams of infected soil was added uniformly into each pot which was filled with steam sterilized field soil, then 18 seeds of cucumber (variety; Tokiwazibai) were sowed in each pot. Eighty percent (80%) wettable powder of the present invention was diluted with water to obtain a suspension, and each pot was drenched with the suspension in an amount of 100 ml. Fifty percent (50%) wettable powder of methyl-1-(butylcarbamoyl) 2-benzimidazol carbamate (hereinafter referred to as Benlate) on the market was used as a control and tested by the same method. After two weeks of planting, degrees attacked by the pathogen was observed and a "percentage of healthy seedlings" was calculated as follows: [formula]

In data set [3] the test system is Aspergillus niger, Penicillium citrinum, Cladosporium harbarum and chaetomium globosum. Nature of the data set: Degree of growth inhibition of fungi on treated beach plates (Example 25). Details: scale not given here. The class given is cell-based. The note with it: numerical rating, 2 weeks. The protocol: The emulsifiable concentrates which were prepared by Example 20 were diluted with water 400 times and 800 times to form emulsions.
The square plates of beach of which a side was 5 cm long and thickness was 5 mm were dipped into the emulsion for 2 minutes and dried for 24 hours at room temperature.
The square plates were placed on the surface of agar plates. The suspensions which contained spores of Aspergillus niger, Penicillium citrinum, Cladosporium harbarum and chaetomium globosum were respectively sprayed on the agar plates and the square plates.
The test fungi were cultivated in the incubator at the humidity of 95% and the temperature of 28° C for 2 weeks. The degree of growth inhibition is defined in terms of the following numerical ratings.

For a further data set, the system named is Aspergillus niger. Nature of the data set: Region of growth-inhibition around treated cotton cloth (Example 26). The class given is cell-based. The note with it: emulsifiable concentrate diluted 100 times. The protocol: (§1) The emulsifiable concentrates which were prepared by Example 20 were diluted with water 100 times to form an emulsion. A cloth of cotton was soaked into each emulsion for 2 minutes. The clothes were dried at room temperature and cut into a square of which a side was 1 cm long. Each kind of test bacteria and fungi was inoculated, separately, on plates of potato-agar and one square cloth placed on each of such plates. Test bacteria and fungi were cultivated at 28° C for 4 days. The width of the region of growth-inhibition which was formed a circumference of the cloth was measured.

The subject of another data set is Bacillus subtilis. Described as above. In kind it is cell-based. The note with it: emulsifiable concentrate diluted 100 times. The protocol:
as §1

For a further data set, the system named is Penicillium Citrinum. Described as above. In kind it is cell-based. As to conditions: emulsifiable concentrate diluted 100 times. How it is done:
as §1

For the next data set, the system named is Staphylococcus oureus. The description is as above. The note with it: emulsifiable concentrate diluted 100 times. The class given is cell-based. The protocol:
as §1

Data set [4] has as its system bacteria gathered from circular water system. Nature of the data set: Degree of propagation on slime test boards (Example 27). The note with it: shaking culture for 2 days. The class given is cell-based. How it is done:
(§2) Zero point zero two (0.02) part of active compounds in the form of 10% water soluble concentrate which was prepared by Example 23 was added into 100 parts of Waxman's liquid medium. Peices of Wood iron (hereafter referred to as the slime test boards) were soaked into the Waxman's liquid medium. The bacteria which were gathered from circular water system were inoculated upon the Waxman's liquid medium and incubated at 27°-34° C by shaking culture for 2 days. The degree of propagation of the bacteria on the slime test boards was examined.
(§3) Thegrowth-inhibiting activity of active compounds against the fungi and the green algae was also examined by the same method as mentioned above.
(§4) The degree of propagation of the bacteria, fungi or green algae on the test boards is defined in terms of the following symbols.

Another data set deals with fungi. Described as above. In kind it is cell-based. As to conditions: same method, shaking culture for 2 days. How it is done:
as §2, §3, §4

A further data set has as its system green algae. Described as above. As to conditions: same method, shaking culture for 2 days. In kind it is cell-based. The protocol:
as §2, §3, §4

For data set [5], the system named is Rhizoctonia solani (damping-off of cucumber). Nature of the data set: Exterminating test on damping-off of cucumber (Experimental Example 3). In kind it is in vivo. As to conditions: Rhizoctonia solani, soil, 240 h, 1,000 ppm, soil drench 50 ml per pot, 10 days; read-out: Percentage of healthy seedlings. The protocol: Exterminating test on damping-off of cucumber
The pots (diameter, 12 cm) were filled with field soil and then soil infected by adding Rhizoctonia solani in an amount of 5 grams per pot uniformly into the pots. Thereafter, 10 seeds of cucumber (variety: Azumamidori) were sown in each pot.
Eighty percent (80%) wettable powder of the present invention was diluted with water to obtain a suspension and each pot was drenched with the suspension in an amount of 50 milliliters. Then, the pots were transferred to the greenhouse. Fifty percent (50%) wettable powder of pentachloronitro benzene (hereinafter referred to as PCNB) on the market was used as a control and tested by the same method. After 10 days of the inoculation, degrees attacked by the pathogen were observed and a "Percentage of healthy seedlings" was calculated. The "Percentage of healthy seedlings" was calculated as follows: [formula]

Data set [6] concerns Xanthomonas citri (citrus canker). Nature of the data set: Exterminating test on citrus canker (Experimental Example 6). The class given is in vivo. As to conditions: Xanthomonas citri, 336 h, read-out: Effect Index, 1,000 ppm, 2 weeks after inoculation. How it is done: (§5) Exterminating test on citrus canker. 4-year-old summer orange seedlings, planted in unglazed pots having a diameter of 20 cm, were employed in this test. Eighty percent (80%) wettable powder of the present invention was diluted with water, and sprayed over the seedlings in an amount of 50 ml per pot. The leaves of the seedlings were inoculated Xanthomonas citri by means of a needle. After the inoculation, the seedlings were maintained in a moist chamber at 25° C for 24 hours. Then the pots were transferred into the greenhouse. Streptomycin 20% wettable powder was used as a control, and tested by the same method. After 2 weeks after the inoculation, degrees of disease attack were observed, and an "Effect Index" was calculated as follows: [formula]

The test system of a further data set is summer orange seedlings. In words: Phytotoxicity on summer orange seedlings (Experimental Example 6). The class given is in vivo. The note with it: 1,000 ppm. How it is done:
as §5

Data set [7] has as its system Cladosporium cucumerinum (cucumber scab). In words: Exterminating test on cucumber scab (Experimental Example 2). Details: scale not given here. The class given is in vivo. As to conditions: 500 ppm, 5 days after inoculation. How it is done:
Exterminating test on cucumber scab
(§6) The cucumber seeds (variety: Sagamihanjiro) were sown in pots (diameter 18 cm). Eighty percent (80%) wettable powder (contents of active compound: 80%) of the present invention was diluted with water to obtain a suspension. The suspension was sprayed over the cucumber seedlings of the stage of 3-4 leaves in an amount of 20 ml per pot. After 24 hours, these pots were inoculated by means of spray of spore suspension of Cladosporium cucumerinum. The thus-inoculated seedlings were placed in a moist chamber at 20° C for 24 hours. The pots were continuously kept in a greenhouse at 20° C. The following wettable powders on the market were used as controls.
70% wettable powder of 1,2-bis (3-methoxy carbonyl-2-thioureid) benzene (hereinafter referred to as "thiophanate methyl") on the market.
75% wettable powder of ethylene bis (dithiocarbamic acid) manganese (hereinafter referred to as "maneb") on the market. After 5 days of the inoculation, degrees attached by the pathogen were observed and the results were shown in Table 3 with an "Infected Index". The "Infected Index" was calculated as follows: [formula] A : Number of leaves which were killed by hard attack B : Number of leaves severely attacked
C : number of leaves slightly attacked
D : number of healthy leaves

For data set [8], the system named is cucumber seedlings (variety: Sagamihanjiro). In words: Phytotoxicity on cucumber seedlings (Experimental Example 2). As to conditions: 500 ppm. In kind it is in vivo. The protocol: as §6
Data set [9] relates to botrytis cinerea (gray mold). In words: Exterminating test on gray mold of tomato (Experimental Example 5). The class given is in vivo. Details: scale not given here. As to conditions: 48 hours after inoculation, kidney bean leaves. How it is done:
Exterminating test on gray mold of tomato The seedlings of kidney beans (variety: Orient) of 5-6 leaves stage were employed in this test. Eighty percent (80%) wettable powder of the present invention was diluted with water and sprayed over the seedlings in an amount of 10 ml per pot. The leaves were cut from the plant at 24 hours after spraying, and placed in the petri dishes (12 cm in diameter). Thereafter disks (5 mm in diameter) were cut with a cork borer from potato dextrose agar on which the pathogen (botrytis cinerea) was cultured. The disks were placed on the leaves. The dishes were placed in such a moistural condition as to cause the pathogen to propagate. Thiophanate methyl 70% wettable powder on the market was used as a control and tested by the same method. After forty eight (48) hours after inoculation, diameters of the lesions were observed, and an "Effect Index" was calculated as follows; [formula]

Data set [10] deals with seedlings of kidney beans (variety: Orient). Nature of the data set: Phytotoxicity on kidney beans (Experimental Example 5). In kind it is in vivo.

For `CC(=O)Oc1ccc(Cl)cc1C(=O)NC=C(Cl)Cl` [Compound No. 7, O-acetyl-N-(2',2'-dichlorovinyl)-5-chlorosalicylamide], the Percentage of healthy seedlings at 0.25 g/box in data set [1] stood at 70.2%. The pest or weed control at 500 ppm in data set [2] amounted to 76.5%. Also, the “Degree of growth inhibition” value in data set [3] (0.0125 %) and in data set [3] (0.025 %) was 5 in each case. Further, the “width of the region of growth-inhibition” value in the data set on Aspergillus niger amounted to 10 mm; in the data set on Bacillus subtilis it was 12 mm; with Penicillium Citrinum, 10 mm; in the data set on Staphylococcus oureus, 11 mm. Besides, the Degree of propagation entry (in [4]; in the data set on fungi; in the data set with green algae) was “-” throughout.

With `CCC(=O)Oc1ccccc1C(=O)NC=C(Cl)Cl` [Compound No. 9], the Percentage of healthy seedlings at 0.25 g/box in [1] came out at 69.8%. For the same compound, in [5], the pest or weed control at 1000 ppm is 90%. The pest or weed control at 500 ppm in data set [2] stood at 75%. Besides, the “Degree of growth inhibition” value in data set [3] (0.0125 %) and in data set [3] (0.025 %) was 3 in each case. Also, the “width of the region of growth-inhibition” value in the data set with Aspergillus niger is on record as 6 mm; with Bacillus subtilis it was 9 mm; in the data set with Penicillium Citrinum it was 6 mm; in the data set on Staphylococcus oureus, 7 mm. Besides, the Degree of propagation result (in [4]; in the data set on fungi; with green algae) was “-” in each case.

As for `CCOC(=O)Oc1ccccc1C(=O)NC=C(Cl)Cl` [compound 17], the Percentage of healthy seedlings at 0.25 g/box in data set [1] was 68.3%. Moreover, the pest or weed control at 1000 ppm in [5] was found to be 85%; in data set [6], 68.3%. In addition, in data set [2], the pest or weed control at 500 ppm stood at 47.5%. The Phytotoxicity entry with summer orange seedlings is listed as “Nil”. Also, the results for the “Degree of growth inhibition” value in data set [3] (0.0125 %) and in data set [3] (0.025 %) were 2 and 3, respectively. Also, the “width of the region of growth-inhibition” value was 5 mm with Aspergillus niger, 8 mm in the data set on Bacillus subtilis, 6 mm in the data set on Penicillium Citrinum and 7 mm with Staphylococcus oureus. Moreover, the Degree of propagation entry is “-” in [4] and “+ (the area of propagation is 1-25% on the slime test boards.)” with green algae.

For `COC(=O)NC(=S)Nc1ccccc1NC(=S)NC(=O)OC` [Thiophanate methyl, 1,2-bis (3-methoxy carbonyl-2-thioureid) benzene, reference compound], the “Infected Index” value in [7] is recorded as 14.6. Moreover, the Phytotoxicity result in data set [8] and in [10] (500 ppm) was “Nil” each time. Also, in data set [9] (500 ppm), the “Effect Index” value stood at 82.

As to `CCCC(=O)Oc1ccccc1C(=O)NC=C(Cl)Cl` [compound 10], the Percentage of healthy seedlings at 0.25 g/box in [1] was 72.1%. The pest or weed control at 1000 ppm in data set [5] worked out at 100%. In addition, the pest or weed control at 500 ppm in data set [2] stood at 70%. The “Effect Index” value in data set [9] (1,000 ppm) came to 88. Also, the Phytotoxicity result in data set [10] (1,000 ppm) was “Nil”. Besides, the “Degree of growth inhibition” value in data set [3] (0.0125 %) and in data set [3] (0.025 %) was 3 in each case. Moreover, the Degree of propagation result in data set [4] is “+ (the area of propagation is 1-25% on the slime test boards.)”; in the data set on fungi, “-”; with green algae, “-”.

`CC(C)C(=O)Oc1ccccc1C(=O)NC=C(Cl)Cl` [compound 11]: the Percentage of healthy seedlings at 0.25 g/box in data set [1] was 68.7%. Moreover, the “Infected Index” value in [7] came out at 10.1. Moreover, the Phytotoxicity entry in [8] and in data set [10] (1,000 ppm) was “Nil” each time. Also, the pest or weed control at 1000 ppm in data set [5] turned out to be 100%. Further, the pest or weed control at 500 ppm in [2] came out at 65.5%. In data set [9] (1,000 ppm), the “Effect Index” value turned out to be 81.
